{
  "source": "ChEMBL document CHEMBL1123301",
  "about": "“Structure-activity study of 6-substituted 2-pyranones as inactivators of alpha-chymotrypsin” (J Med Chem, 1986)",
  "key": {"[1]": {"biological_target": "Chymotrypsinogen A (Bos taurus) (UniProt P00766)"}, "[2]": {"assay": "Binding affinity towards alpha-chymotrypsin from bovine pancreas", "design": "species or system Bos taurus"}, "[3]": {"biological_target": "Chymotrypsinogen A (Bos taurus) (UniProt P00766)", "remark": "listed apart in the source"}, "[4]": {"biological_target": "Chymotrypsinogen A (Bos taurus) (UniProt P00766)", "assay": "Binding affinity towards alpha-chymotrypsin from bovine pancreas; The compound was too insoluble to obtain reliable data"}, "[5]": {"biological_target": "Chymotrypsinogen A (Bos taurus) (UniProt P00766)", "remark": "listed apart in the source"}},
  "note": "pKi: −log10 of the molar value.",
  "data": [
    {"compound": "CCCCc1ccc(=O)oc1Cl", "values": [
      {"measurement": "K inact", "setting": "[1]", "value": 0.00217, "unit": "min⁻¹"}
    ]},
    {"compound": "CCc1ccc(=O)oc1Cl", "values": [
      {"measurement": "K inact", "setting": "[1]", "value": 0.00551, "unit": "min⁻¹"}
    ]},
    {"compound": "O=c1occcc1-c1ccccc1", "values": [
      {"measurement": "pKi", "setting": "[2]", "value": 3.80},
      {"measurement": "K inact", "setting": "[3]", "value": "No inactivation"}
    ]},
    {"compound": "O=c1ccc(-c2ccccc2)c(Cl)o1", "values": [
      {"measurement": "K inact", "setting": "[3]", "value": "No inactivation"}
    ]},
    {"compound": "O=c1oc(Cl)ccc1-c1ccccc1", "values": [
      {"measurement": "K inact", "setting": "[3]", "value": "No inactivation"}
    ]},
    {"compound": "O=c1oc(Br)ccc1Cc1ccc2ccccc2c1", "values": [
      {"measurement": "Ki", "setting": "[4]", "value": "The compound was too insoluble to obtain reliable data"},
      {"measurement": "kinact", "setting": "[5]", "value": 0.0239, "unit": "min⁻¹"}
    ]},
    {"compound": "O=c1ccc(-c2ccccc2)co1", "values": [
      {"measurement": "K inact", "setting": "[3]", "value": "No inactivation"}
    ]}
  ]
}
